Laboratory results published in patent US5962463A, “Methods of stimulating non-amyloidogenic processing of the amyloid precursor protein” (Massachusetts Institute Of Technology, priority 1997, dated 1999).
Where a name gives a salt, the structure may show the parent alone.

Experiments:
APP release = APP release and cell-associated APP in serotonin receptor transfected 3T3 cells (receptor subtype not stated); type: cell-based, human
[1] = taken orally by an individual; cited from earlier work
[2] = test system: human serotonin-1C surface receptor; assay: Phosphatidylinositol turnover in NIH 3T3 cells expressing the 5HT1C receptor; type: cell-based; conditions: NIH 3T3 cells expressing 5-HT1C, FIG. 2B
Text: FIG. 2A is a graphic representation of concentration dependent APP^S release by NIH 3T3 cells transfected with and expressing the gene for the human serotonin-1C surface receptor in response to activation by dexnorfenfluramine. FIG. 2B is a graphic representation of phosphatidylinositol turnover in the same cells in response to activation by dexnorfenfluramine.
In this instance, the agent interacts with and stimulates the serotonin surface receptor directly. […] Additional evidence is provided by the observation that turnover of phosphatidylinositol is stimulated in these cells by dexnorfenfluramine (FIG. 2B).

[3] = molecular target: T1, human brain serotonin 5HT1C receptor (Homo sapiens, UniProt P28335); conditions: for effect on receptor-activated APP release in response to dexnorfenfluramine: 5HT1C transfected cell lines, FIG. 3
T1 sequence (P28335 33-458): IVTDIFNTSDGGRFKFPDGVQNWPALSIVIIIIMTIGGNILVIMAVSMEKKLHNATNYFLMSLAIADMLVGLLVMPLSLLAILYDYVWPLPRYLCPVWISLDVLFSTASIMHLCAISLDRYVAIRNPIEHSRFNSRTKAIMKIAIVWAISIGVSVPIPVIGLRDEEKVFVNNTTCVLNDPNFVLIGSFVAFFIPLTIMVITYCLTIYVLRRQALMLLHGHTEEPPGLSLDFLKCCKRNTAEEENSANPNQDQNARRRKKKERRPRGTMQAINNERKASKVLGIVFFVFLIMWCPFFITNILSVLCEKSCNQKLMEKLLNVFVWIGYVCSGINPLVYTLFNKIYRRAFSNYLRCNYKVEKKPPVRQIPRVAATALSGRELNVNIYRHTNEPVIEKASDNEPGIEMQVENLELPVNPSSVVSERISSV

slices of rat brain = conditions: 100 μM, incubated in slices of rat brain; cited from earlier work
[4] = molecular target: human brain serotonin 5HT2 receptor (Homo sapiens, UniProt P28223); conditions: for effect on receptor-activated APP release in response to serotonin: 5HT2 transfected cell lines, insert in FIG. 1C
[5] = test system: nontransfected human 3T3 cells; assay: Basal release of APP fragments from wild-type (nontransfected) 3T3 cells; type: cell-based; conditions: wild-type cell lines, FIGS. 1A and 1C
Text: Cultured human NIH 3T3 fibroblasts were utilized.
Molecular weight standards were obtained from Amersham.

[6] = stimulation with serotonin, Western blot
[7] = 10 μM serotonin, 5HT2 transfected cells, FIG. 1D

CNc1ccc2oc(C[C@H]3O[C@@]4(CC[C@H]3C)O[C@H]([C@H](C)C(=O)c3ccc[nH]3)[C@H](C)C[C@H]4C)nc2c1C(=O)O [A23187]
ability to mimic the receptor-mediated stimulation of basal APP release (APP release; calcium ionophore, increased intracellular calcium alone): failure

CCN[C@@H](C)Cc1cccc(C(F)(F)F)c1 [dexfenfluramine]
amounts of dexfenfluramine and its de-ethylated metabolite dexnorfenfluramine appearing in the brain [1]: roughly equal amounts

C[C@H](N)Cc1cccc(C(F)(F)F)c1 [dexnorfenfluramine, (+) 1-[3-(trifluoromethyl)-phenyl] propan-2-amine hydrochloride]
turnover of phosphatidylinositol [2]: stimulated | increase of basal APP release ([3]; 5HT1C transfected cells, normalized to vehicle-treated controls): 3 fold | increase in the release of serotonin (slices of rat brain): 6-7 fold

O=C(c1ccc(F)cc1)C1CCN(CCn2c(=O)[nH]c3ccccc3c2=O)CC1 [ketanserin]
effect on receptor-activated APP release in response to dexnorfenfluramine [3]: blocked | effect on receptor-activated APP release in response to serotonin [4]: blocked

CN1CCN2c3ccccc3Cc3ccccc3C2C1 (centres unmarked) [mianserin]
effect on receptor-activated APP release in response to dexnorfenfluramine [3]: blocked

Cc1nc2sccn2c(=O)c1CCN1CCC(=C(c2ccc(F)cc2)c2ccc(F)cc2)CC1 [ritanserin]
effect on receptor-activated APP release in response to dexnorfenfluramine [3]: blocked | effect on receptor-activated APP release in response to serotonin [4]: blocked

NCCc1c[nH]c2ccc(O)cc12 [serotonin]
stimulation of basal release of APP fragments [5]: not stimulated | 128 kD APP derivative secreted into the culture medium (APP release; [6]): increase | abundance of cell-associated 115 kD APP (APP release; [6]): remained unaffected | abundance of cell-associated 141 kD APP (APP release; [6]): decreased | time to half-maximal stimulation of APP release [4, 7]: 30 to 40 min | time to maximum stimulation of APP release [4, 7]: ≤ 120 min

CN[C@@H]1C[C@H]2O[C@@](C)([C@@H]1OC)n1c3ccccc3c3c4c(c5c6ccccc6n2c5c31)C(=O)NC4 [staurosporine]
effect on the serotonin effect on APP release (APP release; serotonin-stimulated transfected cells): inhibited
